Series [1] in a line: rat intestinal in situ perfusion permeability. The class given is in vivo. On the procedure:
To determine the intestinal permeability of the various peptide analogs, male albino Sprague-Dawley rats, 9-10 weeks old and weighing 250-350 g were fasted for 18 hours with free access to water. The rats were anesthetized with an intramuscular injection of ketamine/xylazine/butorphanol (87 mg/kg, 6 mg/kg, and 0.2 mg/kg body weight, respectively). The abdomen was opened by a 4-5 cm midline incision and a 10 cm jejunal segment was cannulated on two ends and connected to a syringe pump that pumps the perfusing solution through the cannulated intestine at a constant rate and at a temperature of 37° C. The isolated segment was rinsed with 10 mM MES (pH 6.5) at a flow-rate of 0.5 ml/min in order to clean out any residual debris. Jejunal perfusion was subsequently performed with the same buffer containing 135 mM NaCl, 5 mM KCl and 0.01% PEG 4000 at a flow rate of 0.2 ml/min containing test compound, internal permeability reference standards (e.g., metoprolol) and ^14C-PEG 4000 as a non-absorbable marker for measuring water flux. After steady-state is reached within the perfused intestinal segment, typically 30 minutes after start of perfusion, samples were taken at 10 minute intervals for 1 hour. ^14C (PEG-4000) levels are assayed by scintillation counting and test compounds and internal permeability standard analysis by LC/MS/MS. Samples are frozen and stored at −80° C. until analysis.
The effective permeability (Peff) determined from the in situ perfusion is calculated from equation 1
[formula] where Q is the perfusion buffer flow rate, C′out is the outlet concentration of the compound that has been adjusted for water transport (equation 2) after passing through the intestinal segment, C′in is the inlet or starting concentration of the compound, R is the radius of the intestinal segment (set to 0.2 cm) and L is the length of the intestinal segment. To correct for water transport, a non-absorbed radioactive tracer, ^14C PEG-4000, is included in the perfusion buffer. The Cout/Cin ratio is corrected for water transport according to equation 2:
[formula] where Aout-A0 is equal to the radioactivity counts in the outlet sample minus background (dpm) and Ain-A0 is equal to the radioactivity counts in the inlet sample minus background (dpm).
In certain instances, in addition to perfusing the intestinal segment as described, plasma is drawn through a portal vein cannula to determine the amount of material entering the portal system during the perfusion. This additional experimental step can aid in determining the true intestinal permeability of unstable compounds. After steady state conditions are reached as described above, 0.5 ml aliquots of plasma are withdrawn from the portal vein at regular intervals throughout the experimental time frame. The plasma samples are deproteinated with acetonitrile and the sample is subjected to SPE and LC/MS analysis as described above. From the plasma concentration of compound, the mesenteric permeability can be determined by substitution into equation 3: Flux=A*Pe-mes*Ci 3) where Flux is equal to the portal blood flow (estimated at 1 ml/min in the rat)×the steady state mesenteric blood concentration of the peptide analogs, A is the absorptive area of the intestine (estimated at 12.56 cm^2 in the rat intestine), Pe-mes is the mesenteric Permeability (cm/sec), and Ci is the starting concentration of drug in the perfusate (ug/ml).

Series [2] can be described thus: stability testing in MES buffer (pH 6.5). The series is classed as physicochemical. As to conditions: 37° C., read-out: t1/2 (min) MES Buffer (pH 6.5). How it is done:
Stability testing of the various compounds was performed in buffer, intestinal perfusate, and an intestinal homogenate preparation to assess the potential oral availability of these compounds. Initial studies prepared the tissue for stability studies. The buffer used in stability testing is 10 mM MES (pH 6.5) containing 135 mM NaCl, and 5 mM KCl. To collect intestinal perfusate from rats, male Sprague Dawley rats, 8 to 10 weeks old, weighing 250 to 350 g were fasted 15 to 18 hours with water given ad libitum. Anesthesia was administered by intramuscular injection of pentobarbital/ketamine (40 mg/kg and 80 mg/kg, respectively). The rats were placed on a warming pad under a surgical lamp to maintain body temperature and jejunal intestinal segments were exposed through a midline, abdominal incision. Approximately 20 cm segment of the jejunum (2 to 4 cm distal to the ligament of Treitz) was cannulated and the intestinal segments were perfused with 10 mM MES (pH 6.5) containing 135 mM NaCl, and 5 mM KCl at a flow-rate of 0.5 ml/min at 37° C. using a constant infusion pump (Harvard Apparatus, South Natick, Mass.). The collected perfusate was stored at −80° C. until use for ex vivo stability studies. After collection, the perfused intestinal segments were flushed with ice-cold 0.15 M KCl solution and the animal was euthanized and the jejunal intestinal segment detached. The inner intestinal tissue layers are scraped out and homogenized in MES buffer (pH 6.5) in a ratio of 1 part of intestinal tissue to 5 parts buffer. Total protein content of the perfusate and the homogenate were determined using a Biorad protein assay kit. The intestinal homogenate samples were used immediately or rapidly frozen at −80° C. until stability analysis.
The actual stability testing protocol is as follows: A 0.1 ml aliquot of the synthetic peptide solution (1 mg/ml) was added to 0.9 ml of MES buffer, pH 6.5, intestinal perfusate, or intestinal homogenate at 37° C. Samples were mixed by vortexing and 100 microliter aliquots were removed over a 60 to 90 minute period for analysis of breakdown products. […]

Where a SMILES comes first, the peptide text is derived from it.

With `N=C(N)NCCC[C@@H](N)C(=O)N1[C@H](C(=O)N2CCC[C@H]2C(=O)NCC(=O)N[C@@H](Cc2ccccc2)C(N)=O)C[C@@H]2CCCC[C@@H]21` [rOicPGF, D-Arg-Oic-Pro-Gly-Phe, reference compound] (HELM PEPTIDE1{[dR].[O=C([C@@H]1C[C@@H]2CCCC[C@@H]2N1[*:1])[*:2]].P.G.F.[am]}$$$$V2.0), the “Permeability (in situ) (cm/sec)” value in series [1] (rat jejunal in situ perfusion) is reported as “Degraded”. The Papp in series [1] (rat, from portal vein plasma during perfusion, read-out: Permeability (mesenteric)) is 0.451 ×10⁻⁶ cm/s. Also, the half-life at 0.1 mg/ml in series [2] amounted to 179 min.

Source of the values: US7879792B2, “Synthetic peptide inhibitors of thrombin and thrombin activation of protease activated receptors 1 and 4” (The Regents of the University of Michigan, priority 2005, dated 2011).
